Read-outs that look alike come from different tables or passages of the source.
Tests used:
[1] = system: primary rat hepatocytes; test: Inhibition of lipid synthesis ([1-14C]-acetate incorporation) in primary rat hepatocytes; format: cell-based; details: Hepatocyte, 4 hours incubation, 0-300 μM
Method: Compounds were tested for inhibition of lipid synthesis in primary cultures of rat hepatocytes. Male Sprague-Dawley rats were anesthetized with intraperitoneal injection of sodium pentobarbital (80 mg/kg). Rat hepatocytes were isolated essentially as described by the method of Seglen (Seglen, P. O. Hepatocyte suspensions and cultures as tools in experimental carcinogenesis. J. Toxicol. Environ. Health 1979, 5, 551-560). Hepatocytes were suspended in Dulbecco's Modified Eagles Medium containing 25 mM D-glucose, 14 mM HEPES, 5 mM L-glutamine, 5 mM leucine, 5 mM alanine, 10 mM lactate, 1 mM pyruvate, 0.2% bovine serum albumin, 17.4 mM non-essential amino acids, 20% fetal bovine serum, 100 nM insulin and 20 μg/mL gentamycin) and plated at a density of 1.5×10^5 cells/cm^2 on collagen-coated 96-well plates. Four hours after plating, media was replaced with the same media without serum. Cells were grown overnight to allow formation of monolayer cultures. Lipid synthesis incubation conditions were initially assessed to ensure the linearity of [1-^14C]-acetate incorporation into hepatocyte lipids for up to 4 hours. Hepatocyte lipid synthesis inhibitory activity was assessed during incubations in the presence of 0.25 μCi [1-^14C]-acetate/well (final radiospecific activity in assay is 1 Ci/mol) and 0, 1, 3, 10, 30, 100 or 300 μM of compounds for 4 hours. At the end of the 4-hour incubation period, medium was discarded and cells were washed twice with ice-cold phosphate buffered saline and stored frozen prior to analysis. To determine total lipid synthesis, 170 μl of MicroScint-E® and 50 μl water was added to each well to extract and partition the lipid soluble products to the upper organic phase containing the scintillant. Lipid radioactivity was assessed by scintillation spectroscopy in a Packard TopCount NXT.

[2] = system: obese female Zucker rats; test: Oral daily treatment of obese female Zucker rats for fourteen days: serum lipids, glycemic control indicators, body weight; format: in vivo, rat; details: for change in vivo at 100 mg/kg/day / change in vivo at 100 mg/kg: Rattus norvegicus, 336 h; for change in vivo at 100 mg/kg/day: 100 mg/kg/day oral gavage, read-out: % wt. gain; for change in vivo at 100 mg/kg / HDL-C/non-HDL-C: 100 mg/kg/day oral; for HDL-C/non-HDL-C: serum ratio
Method: In a number of different experiments, illustrative compounds of the invention are administered daily at a dose of up to 100 mg/kg to chow fed obese female Zucker rats for fourteen days in the morning by oral gavage in 1.5% carboxymethylcellulose/0.2% Tween 20 or 20% ethanol/80% polyethylene glycol (dosing vehicles). Animals are weighed daily. Animals are allowed free access to rodent chow and water throughout the study except on days of blood sampling where food is restricted for six hours prior to blood sampling. Blood glucose is determined after the 6 hour fast in the afternoon without anesthesia from a tail vein. Serum is also prepared from pretreatment blood samples subsequently obtained from the orbital venous plexus (with O2/CO2 anesthesia) and following the fourteenth dose at sacrifice from the heart following O2/CO2 anesthesia. Serums are assayed for lipoprotein cholesterol profiles, triglycerides, total cholesterol, Non-HDL cholesterol, HDL cholesterol, the ratio of HDL cholesterol to that of Non-HDL cholesterol, insulin, non-esterified fatty acids, and beta-hydroxy butyric acid. The percent body weight gain and the ratio of liver to body weight is also determined. These are shown as absolute values or as a percent change of the pretreatment values in Table 1 for compounds A-K and in Table 2 for compounds L-M. [drawing 111]

[3] = blood glucose after 6 hour fast, read-out: Glucose (Percent of Pre-treatment)
[4] = serum beta-hydroxy butyric acid, read-out: BHA (Percent of Pre-treatment)
[5] = serum non-esterified fatty acids, read-out: NEFA (Percent of Pre-treatment)
[6] = serum total cholesterol, read-out: TC (Percent of Pre-treatment)
[7] = serum triglycerides, read-out: TG (Percent of Pre-treatment)
[8] = serum, read-out: HDL-C (Percent of Pre-treatment)
[9] = serum, read-out: Insulin (Percent of Pre-treatment)
[10] = serum, read-out: Non-HDL-C (Percent of Pre-treatment)

Row | SMILES | melting point | IC50 [1] | change in vivo at 100 mg/kg/day [2] | change in vivo at 100 mg/kg [2, 3] | change in vivo at 100 mg/kg [2, 4] | change in vivo at 100 mg/kg [2, 5] | change in vivo at 100 mg/kg [2, 6] | change in vivo at 100 mg/kg [2, 7] | change in vivo at 100 mg/kg [2, 8] | change in vivo at 100 mg/kg [2, 9] | change in vivo at 100 mg/kg [2, 10] | HDL-C/non-HDL-C [2]
1 | CC(C)(CO)CCCCCC(O)CCCCC(C)(C)CO (centres unmarked) [Compound 6.27, 2,2,13,13-Tetramethyltetradecane-1,7,14-triol] | 79 to 80 °C | – | – | – | – | – | – | – | – | – | – | –
2 | CC(C)(CO)CCCCC(O)CCCCC(C)(C)CO [Compound 6.1, 2,2,12,12-Tetramethyltridecane-1,7,13-triol] | 72 to 74 °C | – | – | – | – | – | – | – | – | – | – | –
3 | CC(C)(CO)CCCCCCCC(O)CCCCCCCC(C)(C)CO [H] | – | 2600 nM | 9% | 19% | 97% | -30% | 61% | -36% | 115% | -30% | -5% | 3
4 | CC(C)(CO)CCCCCC(O)CCCCC(C)(C)CO (centres unmarked) [D] | – | 1600 nM | – | – | – | – | – | – | – | – | – | –
5 | CC(C)(CO)CCCCC(O)CCCCC(C)(C)CO [F] | – | 6400 nM | 3% | 10% | – | -43% | 53% | -46% | 222% | -4% | -15% | 2
6 | CC(C)(CCCCC(CO)CCCCC(C)(C)C(=O)O)C(=O)O [K] | – | 14000 nM | 10% | 3% | 253% | -32% | 35% | -45% | 62% | 41% | -38% | 9
7 | CC(C)(CCCCCC(O)CCCCCC(C)(C)C(=O)O)C(=O)O [C] | – | 1000 nM | 3% | -11% | 171% | -42% | 105% | -90% | 169% | -57% | -80% | 40
8 | CC(C)(CO)CCCCCCC(O)CCCCCCC(C)(C)CO [G] | – | 7800 nM | 9% | 14% | 163% | -62% | 21% | -80% | 68% | -38% | -68% | 12
9 | CC(C)(CO)CCCCC(O)CCCCC(C)(C)C(=O)O (centres unmarked) [Compound I] | – | 2300 nM | – | – | – | – | – | – | – | – | – | –
10 | CC(C)(CO)CCCCC(CCCCC(C)(C)CO)C(C)(C)O [Compound 6.12, 7-(1-Hydroxy-1-methylethyl)-2,2,12,12-tetramethyltridecane-1,13-diol] | 72 to 74 °C | – | – | – | – | – | – | – | – | – | – | –

Reference: patent US20070179120A1, “HYDROXYL COMPOUNDS AND COMPOSITIONS FOR CHOLESTEROL MANAGEMENT AND RELATED USES” (ESPERION THERAPEUTICS, INC., priority 2003, published 2007)
